{
  "source": "EPA's ToxRefDB 2",
  "key": {"[1]": {"system": "rat", "conditions": "Developmental neurotoxicity study; long evans; Inhalation; Whole-Body; dose end: 100 PND; group: cannot be grouped; developmental / developmental malformation / bone / incomplete ossification + developmental / developmental malformation / ovary / …"}, "[2]": {"system": "mouse", "conditions": "Carcinogenicity; b6c3f1; Oral; Feed; dose end: 80 week; group: systemic; systemic / pathology microscopic / liver / hepatocellular carcinoma"}, "[3]": {"system": "mink", "conditions": "Multigenerational reproductive toxicity study, ranch wild brown, Oral, Feed, dose end: 1 generation"}, "[4]": {"system": "rat", "conditions": "Carcinogenicity, Osborne-Mendel, Oral, Feed, dose end: 80 week, group: systemic"}, "[5]": {"system": "rat", "conditions": "Developmental neurotoxicity study, sprague dawley, Oral, [Not Specified], dose end: 155 PND, group: cannot be grouped"}, "[6]": {"system": "rat", "conditions": "Developmental neurotoxicity study; sprague dawley; Oral; Gavage/Intubation; dose end: 125 PND; group: cannot be grouped; systemic / in life observation / body weight / offspring (pup) weight + systemic / in life observation / body weight / offspring (pup) …"}, "[7]": {"system": "rat", "conditions": "Multigenerational reproductive toxicity study, wistar, Oral, Feed, dose end: 2 generation"}, "[8]": {"system": "rat", "conditions": "Multigenerational reproductive toxicity study, wistar, Oral, Feed, dose end: 2 generation", "remark": "listed apart in the source"}, "[9]": {"conditions": "group: offspring, developmental / offspring survival late / [other] / [other] + systemic / in life observation / body weight / offspring (pup) weight"}, "[10]": {"conditions": "group: offspring, systemic / in life observation / body weight / offspring (pup) weight"}, "[11]": {"conditions": "group: parental, systemic / in life observation / body weight / body weight + systemic / in life observation / clinical signs / [other] + systemic / in life …"}, "[12]": {"conditions": "group: reproductive, reproductive / reproductive performance / resorptions / resorptions + reproductive / offspring survival early / dead fetuses / dead fetuses"}, "[13]": {"conditions": "systemic / in life observation / clinical signs / palpable mass + systemic / in life observation / clinical signs / vaginal discharge"}, "[14]": {"conditions": "systemic / in life observation / clinical signs / palpable mass + systemic / in life observation / clinical signs / vaginal discharge + …"}, "[15]": {"conditions": "systemic / clinical chemistry / [other] / [other] + systemic / clinical chemistry / chloride / chloride + systemic / in life observation / …"}, "[16]": {"conditions": "systemic / clinical chemistry / chloride / chloride + systemic / in life observation / clinical signs / urination"}, "[17]": {"conditions": "group: parental, systemic / organ weight / epididymis / absolute + systemic / organ weight / testes / absolute"}, "[18]": {"conditions": "group: offspring, developmental / developmental landmark / anogenital distance (agd) / anogenital distance (agd) + developmental / developmental landmark / …"}, "[19]": {"conditions": "group: parental, systemic / in life observation / body weight / body weight gain + systemic / in life observation / body weight / body weight + systemic / …"}, "[20]": {"conditions": "group: reproductive, reproductive / offspring survival early / birth index / live birth index + reproductive / reproductive performance / estrous cycle / …"}},
  "data": [
    {"smiles": "ClC=C(Cl)Cl", "note": "[Trichloroethylene]", "values": [
      {"measurement": "LEL", "setting": "[1]", "result": 1800, "unit": "ppm"},
      {"measurement": "LOAEL", "setting": "[1]", "result": "> 1800", "unit": "ppm"},
      {"measurement": "NEL", "setting": "[1]", "result": "< 1800", "unit": "ppm"},
      {"measurement": "NOAEL", "setting": "[1]", "result": "≥ 1800", "unit": "ppm"}
    ]},
    {"smiles": "ClC1=C(Cl)C2(Cl)C3C(Cl)C=CC3C1(Cl)C2(Cl)Cl", "note": "(configuration not stated) [Heptachlor]", "values": [
      {"measurement": "LEL", "setting": "[2]", "result": 2.07, "unit": "mg/kg/day"},
      {"measurement": "LOAEL", "setting": "[2]", "result": "> 2.07", "unit": "mg/kg/day"},
      {"measurement": "NEL", "setting": "[2]", "result": 0.915, "unit": "mg/kg/day"},
      {"measurement": "NOAEL", "setting": "[2]", "result": "≥ 2.07", "unit": "mg/kg/day"},
      {"measurement": "LOAEL", "setting": "[3]; [9]", "result": "> 25", "unit": "mg/kg/day"},
      {"measurement": "NOAEL", "setting": "[3]; [9]", "result": "≥ 25", "unit": "mg/kg/day"},
      {"measurement": "LEL", "setting": "[3]; [10]", "result": 6.25, "unit": "mg/kg/day"},
      {"measurement": "NEL", "setting": "[3]; [10]", "result": "< 6.25", "unit": "mg/kg/day"},
      {"measurement": "LEL", "setting": "[3]; [11]", "result": 12.5, "unit": "mg/kg/day"},
      {"measurement": "LOAEL", "setting": "[3]; [11]", "result": "> 25", "unit": "mg/kg/day"},
      {"measurement": "NEL", "setting": "[3]; [11]", "result": 6.25, "unit": "mg/kg/day"},
      {"measurement": "NOAEL", "setting": "[3]; [11]", "result": "≥ 25", "unit": "mg/kg/day"},
      {"measurement": "NEL", "setting": "[3]; group: reproductive, reproductive / reproductive performance / resorptions / resorptions", "result": 6.25, "unit": "mg/kg/day"},
      {"measurement": "LEL", "setting": "[3]; [12]", "result": 12.5, "unit": "mg/kg/day"},
      {"measurement": "LOAEL", "setting": "[3]; [12]", "result": "> 25", "unit": "mg/kg/day"},
      {"measurement": "NOAEL", "setting": "[3]; [12]", "result": "≥ 25", "unit": "mg/kg/day"},
      {"measurement": "LEL", "setting": "[4]; [13]", "result": 1.28, "unit": "mg/kg/day"},
      {"measurement": "NEL", "setting": "[4]; [13]", "result": "< 1.28", "unit": "mg/kg/day"},
      {"measurement": "LOAEL", "setting": "[4]; [14]", "result": "> 2.56", "unit": "mg/kg/day"},
      {"measurement": "NOAEL", "setting": "[4]; [14]", "result": "≥ 2.56", "unit": "mg/kg/day"},
      {"measurement": "LOAEL", "setting": "[5]; [15]", "result": "> 3", "unit": "mg/kg/day"},
      {"measurement": "NOAEL", "setting": "[5]; [15]", "result": "≥ 3", "unit": "mg/kg/day"},
      {"measurement": "LEL", "setting": "[5]; [16]", "result": 0.03, "unit": "mg/kg/day"},
      {"measurement": "NEL", "setting": "[5]; [16]", "result": "< 0.03", "unit": "mg/kg/day"}
    ]},
    {"smiles": "CCC[CH2][Sn]([Cl])([CH2]CCC)[CH2]CCC", "note": "[Tributyltin chloride]", "values": [
      {"measurement": "LEL", "setting": "[6]", "result": 5, "unit": "mg/kg/day"},
      {"measurement": "LOAEL", "setting": "[6]", "result": "> 5", "unit": "mg/kg/day"},
      {"measurement": "NEL", "setting": "[6]", "result": 1, "unit": "mg/kg/day"},
      {"measurement": "NOAEL", "setting": "[6]", "result": "≥ 5", "unit": "mg/kg/day"},
      {"measurement": "LEL", "setting": "[7]; [10]", "result": 0.25, "unit": "mg/kg/day"},
      {"measurement": "LOAEL", "setting": "[7]; [10]", "result": 0.25, "unit": "mg/kg/day"},
      {"measurement": "NEL", "setting": "[7]; [10]", "result": "< 0.25", "unit": "mg/kg/day"},
      {"measurement": "NOAEL", "setting": "[7]; [10]", "result": "< 0.25", "unit": "mg/kg/day"},
      {"measurement": "LEL", "setting": "[7]; [17]", "result": 0.25, "unit": "mg/kg/day"},
      {"measurement": "LOAEL", "setting": "[7]; [17]", "result": 0.25, "unit": "mg/kg/day"},
      {"measurement": "NEL", "setting": "[7]; [17]", "result": "< 0.25", "unit": "mg/kg/day"},
      {"measurement": "NOAEL", "setting": "[7]; [17]", "result": "< 0.25", "unit": "mg/kg/day"},
      {"measurement": "LEL", "setting": "[8]; group: offspring, developmental / developmental landmark / anogenital distance (agd) / anogenital distance (agd)", "result": 1.25, "unit": "mg/kg/day"},
      {"measurement": "LOAEL", "setting": "[8]; [18]", "result": "> 6.25", "unit": "mg/kg/day"},
      {"measurement": "NEL", "setting": "[8]; [18]", "result": 0.25, "unit": "mg/kg/day"},
      {"measurement": "NOAEL", "setting": "[8]; [18]", "result": "≥ 6.25", "unit": "mg/kg/day"},
      {"measurement": "NEL", "setting": "[8]; group: parental, systemic / in life observation / body weight / body weight gain", "result": 1.25, "unit": "mg/kg/day"},
      {"measurement": "LEL", "setting": "[8]; [19]", "result": 6.25, "unit": "mg/kg/day"},
      {"measurement": "LOAEL", "setting": "[8]; [19]", "result": "> 6.25", "unit": "mg/kg/day"},
      {"measurement": "NOAEL", "setting": "[8]; [19]", "result": "≥ 6.25", "unit": "mg/kg/day"},
      {"measurement": "LEL", "setting": "[8]; [20]", "result": 6.25, "unit": "mg/kg/day"},
      {"measurement": "LOAEL", "setting": "[8]; [20]", "result": "> 6.25", "unit": "mg/kg/day"},
      {"measurement": "NEL", "setting": "[8]; [20]", "result": 1.25, "unit": "mg/kg/day"},
      {"measurement": "NOAEL", "setting": "[8]; [20]", "result": "≥ 6.25", "unit": "mg/kg/day"}
    ]}
  ]
}
